This assay relates to cells from the A4 clone (hemizygous D816V kit iPSC line). Description: Enucleation rate by flow cytometry using DRAQ5 (PSC-RED protocol without SCF and Epo). The format is cell-based, human. The conditions noted are these: clone A4, 200 nM dasatinib introduced starting at day 35, read at day 41; without dasatinib about 18%. A general note: A flow cytometer gives signals particle by particle.

Experimental: Enucleation: The enucleation rate was measured using the DRAQ5 DNA nuclear stain (ThermoFisher) after exclusion of dead cells with Propidium Iodide. The cells were analyzed with an Aurora flow cytometer (Cytek) flow cytometer, and the flow cytometry data were analyzed with the Flowjo software.
To assess the effect of the D816V kit mutation, control 01 iPSCs were differentiated, and hemizygous clone A4 and homozygous and B34 were randomly selected using the PSC-RED protocol with or without SCF and Epo (FIG. 3A). Dasatinib, which can be used to inhibit the activity of the D816V SCF receptor, was also included in some experiments. Cells were counted once a week, and differentiation was evaluated by flow cytometry, methyl-cellulose assays, and microscopy after Romanowsky staining.
The rate of enucleation was determined by flow cytometry using DRAQ5, a cell permeant DNA dye. Since no cytokines are necessary after day 17 in the PSC-RED protocol in the absence of SCF and Epo, the only trigger left to induce terminal differentiation is the removal of dexamethasone and introduction of RU-4816, a glucocorticoid antagonist (FIG. 2A).

Turning to `Cc1nc(Nc2ncc(C(=O)Nc3c(C)cccc3Cl)s2)cc(N2CCN(CCO)CC2)n1` [dasatinib], the enucleation rate result is reported as “about 25%”.
